Experimental data from ChEMBL document CHEMBL1124494, “Synthesis and biological evaluation of S-adenosyl-1,12-diamino-3-thio-9-azadodecane, a multisubstrate adduct inhibitor of spermine synthase” (J Med Chem, 1989).
pIC50: −log10 of the molar value.

Target: T1, Spermidine synthase (Rattus norvegicus, UniProt Q99MI5)
T1 sequence (Q99MI5 whole entry): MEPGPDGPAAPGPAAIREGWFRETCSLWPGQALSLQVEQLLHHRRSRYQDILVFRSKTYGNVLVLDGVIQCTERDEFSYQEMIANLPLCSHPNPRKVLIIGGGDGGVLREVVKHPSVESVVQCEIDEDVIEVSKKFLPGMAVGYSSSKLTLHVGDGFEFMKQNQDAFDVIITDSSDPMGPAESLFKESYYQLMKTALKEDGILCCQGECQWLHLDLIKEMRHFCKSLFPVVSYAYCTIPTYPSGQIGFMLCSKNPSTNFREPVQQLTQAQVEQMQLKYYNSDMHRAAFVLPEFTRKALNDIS
Assay: Inhibition of spermidine synthase activity was evaluated
Settings: read-out: I50

| Structure (SMILES) | pIC50 |
| --- | --- |
| CCCCCC(CC)SC[C@H]1OC(n2cnc3c(N)ncnc32)[C@H](O)[C@@H]1O (stereo partly drawn) | < 3.30 |
| CCCNCCCCCC(CC)SC[C@H]1OC(n2cnc3c(N)ncnc32)[C@H](O)[C@@H]1O (stereo partly drawn) | < 3.30 |
| NCCCNCCCCCC(CCN)SC[C@H]1OC(n2cnc3c(N)ncnc32)[C@H](O)[C@@H]1O (stereo partly drawn) | < 4.89 |
